Measurements: US11723947B2, “Anti-senescence compounds and uses thereof” (Erasmus University Medical Center Rotterdam, priority 2015, dated 2023)
Peptide text beside a SMILES is read from it. * marks the point of attachment. Cbz = O=C(OCc1ccccc1)*; CH2F = FC*

Tested on: Senescent and control IMR90
Conditions: for effect on effectiveness of FOXO4 DRI in lowering senescent cell viability: viability measured one day earlier; for effect of pan-caspase inhibitor on the FOXO4 DRI effect on senescent cell viability: 20 μM inhibitor, 25 μM FOXO4 DRI, senescent IMR90, 6 days
Method: The selectivity index (S.I.) for the EC50 values was determined after […] (GraphPad Prism) of the curves. […] Real-time cell density was measured using an xCELLigence detection system (ACEA Biosciences). Prior to the start of the measurement 50 μL DMEM 10% FCS was added to each well of an E-plate view 16 (Roche) to determine background signal. Non-senescent (2000 cells per well) and senescent (5000 cells/well) IMR90 fibroblasts were then plated in 150 μl medium. 16 hours later the E-plate was placed in the xCELLigence reader and the cell density was recorded every 30 minutes. […] Measurements continued for the indicated time-points. […] Experiment as in FIG. 2C, but with the indicated peptides. […] Cells were plated in 4-well Poly-L-Lysine coated glass bottom 35 mm dishes (D141410; Matsumi, Japan) and incubated with NucView488 Caspase-3 (4440; Essen Bioscience). […] 8h after addition the real-time imaging was initiated and every 30 min a grid of 3×3 pictures was imaged. The imaging continued for another 6 days and the images were concatenated using Zen imaging software. […] After 6 days cell viability was determined as in FIG. 2C). […] Experiment as in FIG. 2C, but according to the indicated treatment plan. Instead of one single dose, three doses were given (one day in between) of ⅓ that concentration each time. […] Left: Experiment as in FIG. 2C, but on cells pretreated once daily for two days with IL-1α Receptor Antagonist (RA), which blocks IL-1α/β signaling, recombinant IL-6 and recombinant IL-1α/β. […] Right: Similar experiment as in the left panel, except viability measured one day earlier. […] In senescent cells p53 signaling causes upregulation of the cell-cycle arrest and pro-survival protein p21Cip1. […] Experiment as in FIG. 2K. […] Experiment as in FIG. 2c, but with control and senescent IMR90 stable transduced with shRNAs against p53 or a control shRNA (shGFP).
A) Control IMR90 and IMR90 induced to senesce through 10Gy IR were plated in triplicate for each condition in a 96-well plate. […] After 6 days viability was determined through AqeousOne celltiter assay (Promega) according to the manufacturer's instructions.
Non-senescent (=“normal”, proliferating) IMR90 cells (ATCC #CCL-186, a diploid primary human fibroblast adherent cell line derived from fetal lung tissue) were irradiated with 10Gy Gamma-IR (IR=irradiation). After 7 days these cells are senescent and can be used for experiments comparing them to their non-irradiated (=non-senescent) counterparts. Senescent and non-senescent IMR90 fibroblasts were plated for longitudinal cell density measurement using the xCELLigence system (ACEA Biosciences, Inc., San Diego, Calif.).
(§1) 5000 senescent (obtained as described above) and 2000 non-senescent IMR90 fibroblasts were plated in 96-well plates incubated with concentrations of NQDI between 0-20 μM and after 6 days cell viability was determined by AqueousOne CellTiter (MTT) assay according to the manufacturer's instructions.
as §1, with “R406, ranging from 16, 32, 64 to 128 nM” for “NQDI between 0-20 μM”
Normal human IMR90 fibroblasts were exposed to 10 Gy Ionizing Radiation or treated 3× (bidaily) with 0.5 μM Doxorubicin. Seven days later they were processed for SA-β-Gal staining to visualize senescent cells. […] DAPI was used as a counterstain to visualize nuclei. […] After 6 days the cell viability was determined using an AqueousOne Celltiter (MTT) assay according to the manufacturer's instructions.

## CN(C)CC[C@H](CSc1ccccc1)Nc1ccc(S(=O)(=O)NC(=O)c2ccc(N3CCN(Cc4ccccc4-c4ccc(Cl)cc4)CC3)cc2)cc1[N+](=O)[O-] [ABT-737]
  toxicity to non-senescent cells: proved to be toxic to non-senescent cells
3× at ⅓, 3 days in between, senescence by IR
  killing/clearing of senescent cells: only showed limited effectiveness on killing senescent cells

## C[C@]12CCC(=O)C=C1CC[C@@H]1[C@@H]2[C@@H](O)C[C@@]2(C)[C@H]1CC[C@]2(O)C(=O)CO [Cortisol]
  effect on effectiveness of FOXO4 DRI in lowering senescent cell viability: reduce the effectiveness of FOXO4 DRI in lowering senescent cell viability

## CC(C)[C@H](NC(=O)c1ccc2ccccc2n1)C(=O)N[C@@H](CC(=O)O)C(=O)COc1c(F)cccc1F [QVD-OPH]
  effect of pan-caspase inhibitor on the FOXO4 DRI effect on senescent cell viability: potently blocked the effect of FOXO4 DRI to reduce senescent cell viability

## O=c1c(O)c(-c2ccc(O)c(O)c2)oc2cc(O)cc(O)c12 [Quesrcetin]
Quesrcetin alone
  clearing of senescent IMR90, viability senescent vs non-senescent: inefficent towards clearing senescent IMR90

## COC(=O)C[C@H](NC(=O)[C@H](C)NC(=O)[C@@H](NC(=O)OCc1ccccc1)C(C)C)C(=O)CF [ZVAD-FMK] (Cbz-Val-Ala-Asp(OMe)-CH2F)
  effect of pan-caspase inhibitor on the FOXO4 DRI effect on senescent cell viability: potently blocked the effect of FOXO4 DRI to reduce senescent cell viability

## IL-1RA: IL-1α Receptor Antagonist, which blocks IL-1α/β signaling
Pretreated once daily for two days, FOXO4 DRI 12.5 μM
  effect of pretreatment on effectiveness of FOXO4 DRI for killing senescent cells: reduced the effectiveness of FOXO4 DRI

## Lipopolysaccharide
  effect on effectiveness of FOXO4 DRI in lowering senescent cell viability: improves it
